Results: US20220267352A1, “RAPAMYCIN ANALOGS AND USES THEREOF” (Anakuria Therapeutics, Inc., priority 2021, published 2022)

Columns and labels:
Assay type in all cases: cell-based
[1] = system: p-p70 S6 Kinase (Thr389) in MCF-7 cells; assay: AlphaLISA Ultra pS6K1 assay; settings: Homo sapiens, 1.5 h; MCF7 cells, 90 min
Experimental: Example 55: AlphaLISA Ultra pS6K1 Assay
(§1) Assay Protocol: • 1. Seed MCF-7 cells in Corning 3701 plate and incubate for 20˜24 hour. 12,000˜16,000 cells will be seeded in 36 μL medium per well. • 2. Change the culture medium with fresh medium and incubate for another 2 hours. • 3. Add 12 μL (4×) compounds into the cell plate by HAMILTON. Final DMSO concentration is 0.5%. Incubate for 90 minutes. • 4. Aspirate 38 μL by HAMILTON, 10 μL rest per well. • 5. Add 10 μL 2× lysis buffer using HAMILTON; total volume in wells is 20 μL. Allow cells to shake for 30 min. Cover plate by plastic foil and store plate at −80° C. up to analysis. • 6. Thaw cell lysate at RT and transfer 10 μL lysate to assay plate (Optiplate-384). • 7. Add 5 μL acceptor beads into assay plate and incubation for 2 hours • 8. Add 5 μL donor beads and incubation for 2 hours • 9. Count the plate by EnSpire Multimode Plate Reader

[2] = system: mTORC1 over mTORC2; assay: mTORC1 over mTORC2 selectivity by comparing pS6K1 and pAKT IC50; settings: by comparing pS6K1 and pAKT IC50, 90 min
Experimental: as §1, with “Reader […]” for “Reader”
Compounds that are not selective by comparing pS6K1 and pAKT IC50 by kinase assays are indicated by “NO” in the “mTORC1 selective @ 90 min” column of Table 4. […] Compounds that are not selective at the 24 hrs mark are indicated by “NO” in the “mTORC1 selective @ 24 hrs” column of Table 4. “N/A” stands for “not assayed” and “N/C” stands for “not calculated”.

[3] = system: p-Akt 1/2/3 (Ser473) in MCF-7 cells; assay: AlphaLISA Ultra pAKT assay; settings: Homo sapiens, 1.5 h; MCF7 cells, 90 min
Experimental: Example 56: AlphaLISA Ultra pAKT Assay
as §1, with “1.” for “1. Seed”, “16,000˜20,000” for “12,000˜16,000”, “90 minutes.” for “2 hours.”, “Incubate for 90 minutes. • 4.” left out

Compound | IC50 [1] [nM] | IC50 [3] [nM] | mTORC1 selective @ 90 min [2]
COCCOCCO[C@@H]1C[C@@H]2CC[C@@H](C)[C@@](O)(O2)C(=O)C(=O)N2CCCC[C@H]2C(=O)O[C@H]([C@H](C)C[C@@H]2CC[C@@H](OC(F)F)[C@H](OC)C2)CC(=O)[C@H](C)/C=C(\C)[C@@H](O)[C@@H](OC)C(=O)[C@H](C)C[C@H](C)/C=C/C=C/C=C/1C [I-5, (22E,24E,26E,27E,33R,34S,35R,36R,38S,40S,42R,43S,44R,45R,55R)-43-[(1R)-2-[(1S,3R,4R)-4-(difluoromethoxy)-3-methoxy-cyclohexyl]-1-methyl-ethyl]-44,55-dihydroxy-45-methoxy-42-[2-(2-methoxyethoxy)ethoxy]-33,34,35,36,46,47-hexamethyl-64,65-dioxa-56-azatricyclohexatriaconta-22,24,26(46),27(47)-tetraene-48,49,50,51,52-pentone] | 10 to 100 | ≥ 1000 | Yes
CO[C@@H]1C[C@H](C[C@@H](C)[C@@H]2CC(=O)[C@H](C)/C=C(\C)[C@@H](O)[C@@H](OC)C(=O)[C@H](C)C[C@H](C)/C=C/C=C/C=C(\C)C(OCC3COCCO3)C[C@@H]3CC[C@@H](C)[C@@](O)(O3)C(=O)C(=O)N3CCCC[C@H]3C(=O)O2)CC[C@H]1OC(F)F (stereo partly drawn) [I-6, (24E,26E,28E,29E,32R,33S,34R,35R,37S,39S,42S,44R,45R,55R)-42-[(1R)-2-[(1S,3R,4R)-4-(difluoromethoxy)-3-methoxy-cyclohexyl]-1-methyl-ethyl]-41-(1,4-dioxan-2-ylmethoxy)-44,55-dihydroxy-45-methoxy-32,33,34,35,46,47-hexamethyl-66,67-dioxa-56-azatricyclohexatriaconta-24,26,28(46),29(47)-tetraene-48,49,50,51,52-pentone] | 10 to 100 | ≥ 1000 | Yes
CO[C@@H]1/C(C)=C/[C@@H](C)C(=O)C[C@@H]([C@H](C)C[C@@H]2CC[C@@H](OC(F)F)[C@H](OC)C2)OC(=O)[C@@H]2CCCCN2C(=O)C(=O)[C@]2(O)O[C@@H](CC[C@H]2C)CC(OCC2COCCO2)/C(C)=C/C=C/C=C/[C@@H](C)C[C@@H](C)C(=O)[C@@H]1OC (stereo partly drawn) [I-8, (25E,27E,29E,30E,33R,34S,35R,36R,38S,40S,43S,45R,46R,56R)-43-[(1R)-2-[(1S,3R,4R)-4-(difluoromethoxy)-3-methoxy-cyclohexyl]-1-methyl-ethyl]-42-(1,4-dioxan-2-ylmethoxy)-56-hydroxy-45,46-dimethoxy-33,34,35,36,47,48-hexamethyl-66,67-dioxa-57-azatricyclohexatriaconta-25,27,29(47),30(48)-tetraene-49,50,51,52,53-pentone] | 10 to 100 | ≥ 1000 | Yes
CO[C@@H]1C[C@H](C[C@@H](C)[C@@H]2CC(=O)[C@H](C)/C=C(\C)[C@@H](O)[C@@H](OC)C(=O)[C@H](C)C[C@H](C)/C=C/C=C/C=C(\C)[C@H](OCC3COCCO3)C[C@@H]3CC[C@@H](C)[C@@](O)(O3)C(=O)C(=O)N3CCCC[C@H]3C(=O)O2)CC[C@H]1OC(F)F (stereo partly drawn) [I-10, (24E,26E,28E,29E,32R,33S,34R,35R,37S,39S,41R,42S,44R,45R,55R)-42-[(1R)-2-[(1S,3R,4R)-4-(difluoromethoxy)-3-methoxy-cyclohexyl]-1-methyl-ethyl]-41-(1,4-dioxan-2-ylmethoxy)-44,55-dihydroxy-45-methoxy-32,33,34,35,46,47-hexamethyl-66,67-dioxa-56-azatricyclohexatriaconta-24,26,28(46),29(47)-tetraene-48,49,50,51,52-pentone] | 10 to 100 | ≥ 1000 | Yes
CO[C@@H]1/C(C)=C/[C@@H](C)C(=O)C[C@@H]([C@H](C)C[C@@H]2CC[C@@H](O)[C@H](OC)C2)OC(=O)[C@@H]2CCCCN2C(=O)C(=O)[C@]2(O)O[C@@H](CC[C@H]2C)CC(OCCOC2COC2)/C(C)=C/C=C/C=C/[C@@H](C)C[C@@H](C)C(=O)[C@@H]1OC (stereo partly drawn) [I-11, (3S,6R,7E,9R,10R,12R,14S,15E,17E,19E,23S,26R,27R,34aS)-27-hydroxy-3-((R)-1-((1S,3R,4R)-4-hydroxy-3-methoxycyclohexyl)propan-2-yl)-9,10-dimethoxy-6,8,12,14,20,26-hexamethyl-21-(2-(oxetan-3-yloxy)ethoxy)-9,10,12,13,14,21,22,23,24,25,26,27,32,33,34,34a-hexadecahydro-3H-23,27-epoxypyrido[2,1-c][1]oxa[4]azacyclohentriacontine-1,5,11,28,29(4H,6H,31H)-pentaone] | 10 to 100 | ≥ 1000 | Yes

Further lines, with some results ahead:

IC50 [1] [nM] | IC50 [3] [nM] | Compound | mTORC1 selective @ 90 min [2]
1 to 10 | ≥ 1000 | COCCOCCOC1C[C@@H]2CC[C@@H](C)[C@@](O)(O2)C(=O)C(=O)N2CCCC[C@H]2C(=O)O[C@H]([C@H](C)C[C@@H]2CCC(OC3COC3)[C@H](OC)C2)CC(=O)[C@H](C)/C=C(\C)[C@@H](O)[C@@H](OC)C(=O)[C@H](C)C[C@H](C)/C=C/C=C/C=C/1C (stereo partly drawn) [I-7, (24E,26E,28E,29E,35R,36S,37R,38R,40S,42S,45S,47R,48R,57R)-47,57-dihydroxy-48-methoxy-44-[2-(2-methoxyethoxy)ethoxy]-45-[(1R)-2-[(1S,3R)-3-methoxy-4-(oxetan-3-yloxy)cyclohexyl]-1-methyl-ethyl]-35,36,37,38,49,50-hexamethyl-67,68-dioxa-58-azatricyclohexatriaconta-24,26,28(49),29(50)-tetraene-51,52,53,54,55-pentone] | Yes
< 1 | ≥ 1000 | CO[C@@H]1C[C@H](C[C@@H](C)[C@@H]2CC(=O)[C@H](C)/C=C(\C)[C@@H](O)[C@@H](OC)C(=O)[C@H](C)C[C@H](C)/C=C/C=C/C=C(\C)C(OCC3COCCO3)C[C@@H]3CC[C@@H](C)[C@@](O)(O3)C(=O)C(=O)N3CCCC[C@H]3C(=O)O2)CC[C@H]1OCCCN1CCOCC1 (stereo partly drawn) [I-12, (28E,30E,32E,33E,39R,40S,41R,42R,44S,46S,49S,51R,52R,61R)-48-(1,4-dioxan-2-ylmethoxy)-51,61-dihydroxy-52-methoxy-49-[(1R)-2-[(1S,3R,4R)-3-methoxy-4-(3-morpholinopropoxy)cyclohexyl]-1-methyl-ethyl]-39,40,41,42,53,54-hexamethyl-74,75-dioxa-63-azatricyclohexatriaconta-28,30,32(53),33(54)-tetraene-55,56,57,58,59-pentone] | Yes
1 to 10 | ≥ 1000 | CO[C@@H]1C[C@H](C[C@@H](C)[C@@H]2CC(=O)[C@H](C)/C=C(\C)[C@@H](O)[C@@H](OC)C(=O)[C@H](C)C[C@H](C)/C=C/C=C/C=C(\C)[C@H](OCCOC3COC3)C[C@@H]3CC[C@@H](C)[C@@](O)(O3)C(=O)C(=O)N3CCCC[C@H]3C(=O)O2)CC[C@H]1OCCCN1CCOCC1 [I-13, (27E,29E,31E,32E,39R,40S,41R,42R,44S,46S,48R,49S,51R,52R,61R)-51,61-dihydroxy-52-methoxy-49-[(1R)-2-[(1S,3R,4R)-3-methoxy-4-(3-morpholinopropoxy)cyclohexyl]-1-methyl-ethyl]-39,40,41,42,53,54-hexamethyl-48-[2-(oxetan-3-yloxy)ethoxy]-73,74-dioxa-63-azatricyclohexatriaconta-27,29,31(53),32(54)-tetraene-55,56,57,58,59-pentone] | Yes
